{"source": "ChEMBL document CHEMBL4800728", "about": "“Data for DCP probe JNJ-54119936” (2021)", "key": {"[1]": {"molecular_target": "Nuclear receptor ROR-alpha (Homo sapiens) (UniProt P35398)", "sequence (P35398 whole entry)": "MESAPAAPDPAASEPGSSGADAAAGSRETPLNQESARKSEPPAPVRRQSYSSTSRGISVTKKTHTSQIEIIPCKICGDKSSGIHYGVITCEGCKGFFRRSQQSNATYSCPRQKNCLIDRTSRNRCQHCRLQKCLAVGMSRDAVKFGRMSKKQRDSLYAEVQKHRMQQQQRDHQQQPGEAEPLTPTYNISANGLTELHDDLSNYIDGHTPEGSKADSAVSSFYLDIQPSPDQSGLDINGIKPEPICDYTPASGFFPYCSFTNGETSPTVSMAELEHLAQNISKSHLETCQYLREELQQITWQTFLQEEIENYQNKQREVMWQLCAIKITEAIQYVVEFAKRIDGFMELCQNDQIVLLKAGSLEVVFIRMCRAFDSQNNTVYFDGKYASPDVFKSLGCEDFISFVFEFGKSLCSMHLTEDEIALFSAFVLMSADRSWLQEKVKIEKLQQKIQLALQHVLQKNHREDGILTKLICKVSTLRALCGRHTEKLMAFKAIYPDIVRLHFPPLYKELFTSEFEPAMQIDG", "assay": "ThermoFluor Binding Assay (RORA)"}, "[2]": {"molecular_target": "Nuclear receptor ROR-beta (Homo sapiens) (UniProt Q92753)", "sequence (Q92753 whole entry)": "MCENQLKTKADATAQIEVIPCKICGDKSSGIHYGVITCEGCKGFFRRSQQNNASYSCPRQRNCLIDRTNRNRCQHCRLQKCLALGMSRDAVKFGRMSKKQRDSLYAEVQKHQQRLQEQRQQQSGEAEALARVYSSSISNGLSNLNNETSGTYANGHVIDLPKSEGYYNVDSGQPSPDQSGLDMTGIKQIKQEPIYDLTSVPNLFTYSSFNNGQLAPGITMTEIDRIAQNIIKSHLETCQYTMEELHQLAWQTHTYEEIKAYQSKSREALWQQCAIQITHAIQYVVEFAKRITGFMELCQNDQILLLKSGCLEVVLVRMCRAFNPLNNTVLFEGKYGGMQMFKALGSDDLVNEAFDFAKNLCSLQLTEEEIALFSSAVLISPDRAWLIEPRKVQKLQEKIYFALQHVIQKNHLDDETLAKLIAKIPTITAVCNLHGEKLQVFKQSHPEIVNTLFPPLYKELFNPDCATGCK", "assay": "ThermoFluor Binding Assay (RORB)"}}}
{"molecule": "COc1nc2ccc([C@@](O)(c3ccc(Cl)cc3)c3cncn3C)cc2c(Cl)c1Cc1ccc(-n2cccn2)cc1", "values": [{"measurement": "qKD", "setting": "[1]", "result": 16.8, "unit": "µM"}, {"measurement": "qKD", "setting": "[2]", "result": 40, "unit": "µM"}]}
